Results from patent publication US11911178B2, “System and method to detect and treat arrhythmogenic regions in atrial fibrillation” (Northwestern University, priority 2020, dated 2024).

Test system: atrial fibrillation
Experiment: open chest epicardial electrogram mapping of atrial fibrillation in animals at baseline and after ROS scavenger (NAC) administration
Format: in vivo
Method: In an illustrative embodiment, the proposed method and system involve use of an electrogram to monitor a patient's heart characteristics. An electrode recording system can be used to receive and store baseline electrogram signals from the heart of the patient during sinus rhythm. As discussed in more detail below, mapping is performed based on the received electrogram signals to generate high resolution maps in multiple atrial regions of the patient. A reactive oxygen species scavenger (e.g., NAC) is then administered to the patient. The electrogram is used to measure various characteristics of the heart after administration of the ROS scavenger. These characteristics can include dominant frequency (DF), cycle length (CL), organization index (OI), fractionation index (FI), recurrence morphology percentage (Rec %), Shannon's entropy (ShEn), conduction velocity, and voltage. The monitored characteristics can also include the number and stability of rotational, focal, and wavelet activities in different atrial regions of the heart. The various atrial regions of the heart can include posterior left atrium (PLA), left atrial free wall (LAFW), left atrial appendage (LAA), posterior right atrium (PRA), right atrial free wall (RAFW), right atrial appendage (RAA), etc. In alternative embodiments, different heart regions may be used.
In an illustrative embodiment, the proposed system uses a computing system to perform calculation of percentage changes of AF characteristics at each electrogram electrode location at different time intervals subsequent to administration of the ROS scavenger. The percentage changes are based on the baseline readings from the electrogram (i.e., the readings received prior to administration of the ROS scavenger). For example, the calculations of percentage changes can be after 30 minutes, 1 hour, and 2 hours in one embodiment. Alternatively, different or additional times may be used, such as 45 minutes, 1.5 hours, 3 hours, 4 hours, etc. In some implementations, rebolus of the ROS scavenger administration may be performed in between the time periods.
Referring to FIG. 2B, a baseline measurement for each of a plurality of characteristics is obtained using the electrogram system in an operation 230. The baseline measurements are measured prior to administration of the ROS scavenger in an operation 235, and mapping of the various characteristics is performed based on the measured characteristics in an operation 240. Any of the characteristics described herein can be used. The system continues conducting measurements using the electrogram at various periods of time subsequent to administration of the ROS scavenger, such as 30 minutes, 1 hour, 2 hours, etc. The system also calculates the percentage change for each of the measured characteristics at each of the periods of time, as compared to the baseline measurements in an operation 245. Hotspots are identified for each measured characteristic based on the percentage changes in the operation 245. In one embodiment, the determined percentage changes are compared to a percentage change threshold to determine whether a given area is a hotspot. The percentage change threshold can be 5%, 8%, 10%, 20%, etc. depending on the implementation. Alternatively, instead of basing the determination on the percentage change, the determination of whether an area is a hotspot can be based on the amount of absolute change in the measured characteristic, and can vary for each characteristic. Based on the identified hotspots, the system also calculates the percentage of overlap among the various hotspots from each of the characteristics in an operation 250. The system maps the overlapping hotspots (based on the percentage of overlap) so that they can be visualized in an operation 255, and the overlapping hotspots are then targeted for treatment.
Experiments were conducted on animals using the techniques described herein. […]

Structure (SMILES): CC(=O)N[C@@H](CS)C(=O)O [NAC, N-acetylcysteine]
- mapping field showing hotspot overlap in >50% of the EGM measures (Animal 1, LAFW, 1 hour after administration): 36%
- mapping field showing hotspot overlap in >50% of the EGM measures (Animal 1, LAFW, 2 hours after administration): 13%
- mapping field showing hotspot overlap in >50% of the EGM measures (Animal 8, LAFW, 1 hour after administration): 15%
- mapping field showing hotspot overlap in >50% of the EGM measures (Animal 8, LAFW, (2) hours after administration): 48%
- DF peak (LAFW and PLA, 1 hour after NAC, baseline peak 11.5 Hz, histogram of all 10 hearts): 9 Hz
- DF peak (LAFW and PLA, 2 hours after NAC, baseline peak 11.5 Hz, histogram of all 10 hearts): 7.5 Hz
- stability of observed 360 degree rotations in activation maps (LAFW, after NAC administration): significantly decreased
- DF peak (RAA, after 1 hr NAC, baseline peak 8.5 Hz): 7.5 Hz
- rotational source (after NAC administration): reduced
- mapping field with overlap in more than 50% of the electrogram measurements (percentage change threshold 5%, Animal 1, 1 hour after administration): 19%
- mapping field with overlap in more than 50% of the electrogram measurements (percentage change threshold 5%, Animal 1, 2 hours after administration): 27%
- mapping field with overlap in more than 50% of the electrogram measurements (percentage change threshold 5%, Animal 8, 1 hour after administration): 17%
- mapping field with overlap in more than 50% of the electrogram measurements (percentage change threshold 5%, Animal 8, 2 hours after administration): 47%
- mapping field with overlap in more than 50% of the electrogram measurements (percentage change threshold 20%, Animal 1, after 1 hour): 2%
- mapping field with overlap in more than 50% of the electrogram measurements (percentage change threshold 20%, Animal 1, after 2 hours): 7%
- mapping field with overlap in more than 50% of the electrogram measurements (percentage change threshold 20%, Animal 8, after 1 hour): 6%
- mapping field with overlap in more than 50% of the electrogram measurements (percentage change threshold 20%, Animal 8, after 2 hours): 29%
